Earlier results, collected in patent US6479541B1, “Amiodarone-containing parenteral administration” (Baxter International, priority 2000, dated 2002).

Conditions: dogs, intravenous; literature Gough et al. 1982

polysorbate 80 [Tween 80]
cardiodepression / hypotension: associated with cardiodepression, causing hypotension
